Converted amounts (≈) assume the structure as drawn. “And” between values parts separate entries of the source, which are not always exact repeats. Equal values may be shown once. Read-outs that look alike come from different tables or passages of the source. Ends that are not written are not given here. Peptide text beside a SMILES is read from it.
Key:
E. coli 25922 [1] = type: cell-based, Escherichia coli
Method: (§1) The minimum inhibitory concentration of a peptide is the concentration at which no observable bacterial growth can be determined by visual inspection. MIC values are useful for determining the potential of a test article as a therapeutic, as well as in comparison to other test articles. A variety of antimicrobial peptides were tested for activity against an array of clinically relevant bacterial strains. The sequences of SMAP-29 derivatives and their key features can be seen in Table 1, with peptides being named in reference to how they were originally published. Peptides OV3-00 and OV3-01 were utilized in this study. Because the template (or parental) peptide, SMAP-29, derived from sheep leukocytes, is hemolytic to human red blood cells, efforts were made to enhance the therapeutic index of the peptide leading to the creation of OV and OV3 [14, 19]. Various derivatives were made and OV3 came to represent two distinct peptides in the literature: the peptide labeled OV3 and a peptide with an additional c-terminal YG, herein labeled OV3-00. Previous work in our laboratory utilized OV3 for the design and synthesis of ATCUN domain peptides, but it lacks a tryptophan or tyrosine residue that allows for more ready quantification of the peptide concentration by the extinction coefficient, leading to a less accurate, more difficult, concentration analysis by mass spectrometry. To ease quantification and facilitate studies on the OV3 series in our laboratory, and compare the effect of the added YG, additional work was pursued using the longer OV3-00 and OV3-01 derivatives.
(§2) Minimum inhibitory concentrations (MICs) of test molecules were established by broth dilution assays. Mid-log phase bacterial cultures of a variety of clinically important organisms were diluted and incubated with a serial dilution of each peptide, starting at 128 µM. The concentration of peptide at which no visible growth occurred was marked as the MIC. Bacterial strains were incubated in Mueller–Hinton Broth (MHB) at 37 degrees Celsius until the OD600 reached between 0.8 and 1. The resulting culture was subsequently diluted 100× into 96-well plates with the test articles. Positive and negative controls containing only MHB incubated with bacteria and MHB, respectively, were also included on the plate. Each 96-well plate was incubated for 16–20 h, and the MIC was determined by visual inspection. To determine the colony-forming units (CFUs) present in each assay, 100 µL of the 100× diluted culture was further diluted by 1000× and plated on agar plates and determined by use of Equation (1). The colonies were counted to ensure that the CFU value was between 10^4 and 10^5. CFU/mL = (mean # of colonies/0.1 mL) (1000 (dilution factor))(1)

A. baumannii BAA747 = type: cell-based, Acinetobacter baumannii
Method: as §1, §2

E. faecium 700221 (VRE) = type: cell-based
Method: as §1, §2

K. pneumoniae 700603 = type: cell-based
Method: as §1, §2

P. aeruginosa 27583 = type: cell-based
Method: as §1, §2

S. aureus 43300 (MRSA) = type: cell-based
Method: as §1, §2

E. coli 25922 [2] = assay: FIC of peptide pairs (two-way dilution, 96-well plate); type: cell-based, Escherichia coli; conditions: single peptide on the FIC plate, initial screen, one value given
Method: Determining MIC values informed decisions on testing peptides in combination. Fractional inhibitory concentrations determine the ability of test articles to act in concert against a pathogen. FIC determination is experimentally similar to MIC determination, except one test article is diluted down the wells and another is diluted across the wells of the 96-well plate in order to test the synergism of two peptides. […] Synergy is defined as an FIC of less than or equal to 0.5, meaning there is a four-fold reduction in the concentration of each peptide required for inhibition. Any number above 4 indicates a deleterious interaction that reduces the effectiveness of each peptide, and a value between 0.5 and 1 can be considered additive (Equation (2)).
Fractional inhibitory concentrations (FICs) were determined in a manner similar to MIC determinations but with serial dilutions of two peptides running both horizontally and vertically across the 96-well plate. Determination of the FIC can be seen in Equation (2), where FIC is the fractional inhibitory concentration, [A] is the concentration of substrate A at MIC in combination, [B] is the concentration of substrate B at MIC in combination, and MICA and MICB are the MIC of substrate A and substrate B, respectively. FIC = fractional inhibitory concentration, [A] = concentration of A at MIC in combination, [B] = concentration of B at MIC in combination, MICA = minimum inhibitory concentration of A, and MICB = minimum inhibitory concentration of B. When FIC ≤ 0.5 the results are synergistic. If FIC > 4, the results are antagonistic, and when FIC > 0.5, the results are indifferent or additive. (2) FIC=[A]/MICA+ [B]/MICB

Compound: CC[C@H](C)[C@H](NC(=O)[C@H](CC(C)C)NC(=O)[C@H](C)NC(=O)[C@@H]1CCCN1C(=O)[C@H](CC(C)C)NC(=O)CNC(=O)[C@@H](NC(=O)[C@@H](NC(=O)[C@H](CC(C)C)NC(=O)[C@@H](NC(=O)[C@H](CCCCN)NC(=O)[C@H](CCCCN)NC(=O)[C@@H](NC(=O)[C@H](C)NC(=O)[C@@H](NC(=O)[C@@H](NC(=O)[C@H](CC(C)C)NC(=O)[C@H](CCCCN)NC(=O)[C@H](CCCCN)NC(=O)[C@@H](NC(=O)[C@H](Cc1ccccc1)NC(=O)[C@H](CO)NC(=O)[C@H](CCCCN)NC(=O)[C@H](Cc1c[nH]c2ccccc12)NC(=O)[C@H](CCCCN)NC(=O)[C@H](Cc1c[nH]cn1)NC(=O)CNC(=O)CN)[C@@H](C)CC)[C@@H](C)O)[C@@H](C)O)C(C)C)C(C)C)[C@@H](C)O)[C@@H](C)O)C(=O)N[C@@H](CO)C(N)=O [CP29-01]
- MIC (E. coli 25922 [1]; E. coli 25922, Gram (-), broth dilution in MHB, 37 °C, 16–20 h, visual inspection, dilution from 128 µM): 8 µM (≈ 25 µg/mL)
- MIC (A. baumannii BAA747; A. baumannii BAA747, Gram (-), broth dilution in MHB, 37 °C, 16–20 h, visual inspection): 1 µM (≈ 3.12 µg/mL)
- MIC (E. faecium 700221 (VRE); E. faecium 700221 (VRE), Gram (+), broth dilution in MHB, 37 °C, 16–20 h, visual inspection): 4 µM (≈ 12.5 µg/mL)
- MIC (K. pneumoniae 700603; K. pneumoniae 700603, Gram (-), broth dilution in MHB, 37 °C, 16–20 h, visual inspection): 8 µM (≈ 25 µg/mL)
- MIC (P. aeruginosa 27583; P. aeruginosa 27583, Gram (-), broth dilution in MHB, 37 °C, 16–20 h, visual inspection): 2 µM (≈ 6.25 µg/mL)
- MIC (S. aureus 43300 (MRSA); S. aureus 43300 (MRSA), Gram (+), broth dilution in MHB, 37 °C, 16–20 h, visual inspection): 16 µM (≈ 50 µg/mL)

Compound: NCC(=O)NCC(=O)N[C@@H](Cc1c[nH]cn1)C(N)=O [GGH] (H-Gly-Gly-His-NH2)
- MIC (E. coli 25922 [1]; 25922): >128 µM
- MIC (A. baumannii BAA747; BAA747): >128 µM
- MIC (E. faecium 700221 (VRE); 700221 (VRE)): >128 µM
- MIC (K. pneumoniae 700603; 700603): >128 µM
- MIC (P. aeruginosa 27583; 27583): >128 µM
- MIC (S. aureus 43300 (MRSA); 43300): >128 µM

Compound: CC[C@H](C)[C@H](NC(=O)[C@H](Cc1c[nH]cn1)NC(=O)CNC(=O)CN)C(=O)N[C@@H](CC(C)C)C(=O)N1CCC[C@H]1C(=O)N[C@@H](Cc1c[nH]c2ccccc12)C(=O)N[C@@H](CCCCN)C(=O)N[C@@H](Cc1c[nH]c2ccccc12)C(=O)N1CCC[C@H]1C(=O)N[C@@H](Cc1c[nH]c2ccccc12)C(=O)N[C@@H](Cc1c[nH]c2ccccc12)C(=O)N1CCC[C@H]1C(=O)N[C@@H](Cc1c[nH]c2ccccc12)C(=O)N[C@@H](CCCNC(=N)N)C(=O)N[C@@H](CCCNC(=N)N)C(=O)NCC(=O)NCC(=O)N[C@@H](CS)C(N)=O [IND-01]
- MIC (E. coli 25922 [1]; 25922): 32 µM (≈ 76 µg/mL)
- MIC (A. baumannii BAA747; BAA747): 32 µM (≈ 76 µg/mL)
- MIC (E. faecium 700221 (VRE); 700221 (VRE)): 8 µM (≈ 19 µg/mL)
- MIC (K. pneumoniae 700603; 700603): >64 µM
- MIC (P. aeruginosa 27583; 27583): >64 µM
- MIC (S. aureus 43300 (MRSA); 43300): 64 µM (≈ 152 µg/mL)

Compound: CC(C)C[C@H](NC(=O)[C@H](Cc1ccccc1)NC(=O)[C@@H]1CCCN1C(=O)[C@H](Cc1c[nH]c2ccccc12)NC(=O)[C@H](Cc1c[nH]c2ccccc12)NC(=O)[C@H](Cc1c[nH]c2ccccc12)NC(=O)[C@@H]1CCCN1C(=O)[C@H](Cc1ccccc1)NC(=O)[C@H](CCCNC(=N)N)NC(=O)[C@H](CCCNC(=N)N)NC(=O)[C@@H](N)C(C)C)C(=O)N[C@@H](CCCNC(=N)N)C(=O)N[C@@H](CCCNC(=N)N)C(N)=O [TRP, tritrpticin]
- MIC (E. coli 25922 [1]; 25922): 8 µM (≈ 15.2 µg/mL)
- MIC (A. baumannii BAA747; BAA747): 8 µM (≈ 15.2 µg/mL)
- MIC (E. faecium 700221 (VRE); 700221 (VRE)): 2 µM (≈ 3.8 µg/mL)
- MIC (K. pneumoniae 700603; 700603): 32 µM (≈ 60.8 µg/mL)
- MIC (P. aeruginosa 27583; 27583): 16 µM (≈ 30.4 µg/mL)
- MIC (S. aureus 43300 (MRSA); 43300): 8 µM (≈ 15.2 µg/mL)

Compound: FVQWFSKFLGRIL-NH2 [TempL]
- MIC (E. coli 25922 [1]; 25922): 4 µM
- MIC (A. baumannii BAA747; BAA747): 4 µM
- MIC (E. faecium 700221 (VRE); 700221 (VRE)): 8 µM
- MIC (K. pneumoniae 700603; 700603): 16 µM
- MIC (P. aeruginosa 27583; 27583): 32 µM
- MIC (S. aureus 43300 (MRSA); 43300): 4 µM

Compound: GGHGIGKFLHSAKKWGKAFVGEIMNS-NH2 [Mag2-01]
- MIC (E. coli 25922 [1]; 25922): 16 µM
- MIC (A. baumannii BAA747; BAA747): 8 µM
- MIC (E. faecium 700221 (VRE); 700221 (VRE)): 32 µM
- MIC (K. pneumoniae 700603; 700603): 64 µM
- MIC (P. aeruginosa 27583; 27583): 64 µM
- MIC (S. aureus 43300 (MRSA); 43300): >128 µM

Compound: GGHGVRRFPWWWPFLRR-NH2 [TRP-02, ATCUN derivative of tritrpticin]
- MICA/MICB, concentration with no growth when dosed separately (E. coli 25922 [2]): 8 µM and 16 µM

Compound: GGHGVRRFPWWWPFLRRGGC-NH2 [TRP-03, ATCUN derivative of tritrpticin]
- MICA/MICB, concentration with no growth when dosed separately (E. coli 25922 [2]): 16 µM

Compound: GGHIRRIIRKIIHIIKKYG-NH2 [OV3-01]
- MIC (E. coli 25922 [1]; 25922): 4 µM
- MIC (A. baumannii BAA747; BAA747): 8 µM
- MIC (E. faecium 700221 (VRE); 700221 (VRE)): 4 µM
- MIC (K. pneumoniae 700603; 700603): 16 µM
- MIC (P. aeruginosa 27583; 27583): 16 µM
- MIC (S. aureus 43300 (MRSA); 43300): 16 µM

Compound: GGHVRRFPWWWPFLRRGGC-NH2 [TRP-01]
- MIC (E. coli 25922 [1]; 25922): 32 µM
- MIC (A. baumannii BAA747; BAA747): 16 µM
- MIC (E. faecium 700221 (VRE); 700221 (VRE)): 8 µM
- MIC (K. pneumoniae 700603; 700603): 32 µM
- MIC (P. aeruginosa 27583; 27583): 64 µM
- MIC (S. aureus 43300 (MRSA); 43300): 32 µM

Compound: GGHYLGALLGPLMNLLQ-NH2 [PFQα-01]
- MIC (E. coli 25922 [1]; 25922): >128 µM
- MIC (A. baumannii BAA747; BAA747): 128 µM
- MIC (E. faecium 700221 (VRE); 700221 (VRE)): >128 µM
- MIC (K. pneumoniae 700603; 700603): >128 µM
- MIC (P. aeruginosa 27583; 27583): >128 µM
- MIC (S. aureus 43300 (MRSA); 43300): 16 µM

Compound: GILAWKWAWWAWRR-NH2 [CP10A]
- MIC (E. coli 25922 [1]; 25922): 16 µM
- MIC (A. baumannii BAA747; BAA747): 8 µM
- MIC (E. faecium 700221 (VRE); 700221 (VRE)): 8 µM
- MIC (K. pneumoniae 700603; 700603): 32 µM
- MIC (P. aeruginosa 27583; 27583): 64 µM
- MIC (S. aureus 43300 (MRSA); 43300): 4 µM

Compound: IRRIIRKIIHIIKKYG-NH2 [OV3-00]
- MIC (E. coli 25922 [1]; 25922): 2 µM
- MIC (A. baumannii BAA747; BAA747): 4 µM
- MIC (E. faecium 700221 (VRE); 700221 (VRE)): 4 µM
- MIC (K. pneumoniae 700603; 700603): 4 µM
- MIC (P. aeruginosa 27583; 27583): 16 µM
- MIC (S. aureus 43300 (MRSA); 43300): 8 µM
